From patent US8415379B2, “Pyridines” (Hoffmann-La Roche Inc., priority 2009, dated 2013)

Molecular target: T1, GABA A α5 (human receptors of composition α5β3γ2) (Homo sapiens, UniProt P18507+P31644)
T1 construct: expressed in transfected cells; host or cells: HEK293 cells, transiently transfected; membrane homogenates used
Experiment: [3H]flumazenil competition binding assay, human GABA A α5β3γ2 receptors in HEK293 cells
Conditions: displacement of 0.5 nM [3H]flumazenil, HEK293 membranes, 1 hour at 4° C., means of two determinations, read-out: hKi GABA A α5
Method: The affinity of compounds at GABA A receptor subtypes was measured by competition for [^3H]flumazenil (85 Ci/mmol; Roche) binding to HEK293 cells expressing rat (stably transfected) or human (transiently transfected) receptors of composition α1β3γ2, α2β3γ2, α3β3γ2 and α5β3γ2.
Cell pellets were suspended in Krebs-tris buffer (4.8 mM KCl, 1.2 mM CaCl2, 1.2 mM MgCl2, 120 mM NaCl, 15 mM Tris; pH 7.5; binding assay buffer), homogenized by polytron for ca. 20 sec on ice and centrifuged for 60 min at 4° C. (50000 g; Sorvall, rotor: SM24=20000 rpm). The cell pellets were re-suspended in Krebs-tris buffer and homogenized by polytron for ca. 15 sec on ice. Protein was measured (Bradford method, Bio-Rad) and aliquots of 1 mL were prepared and stored at −80° C.
Radioligand binding assays were carried out in a volume of […] (96-well plates) which contained […] of cell membranes, [^3H]flumazenil at a concentration of 1 nM for α1, α2 and α3 subunits and 0.5 nM for α5 subunits and the test compound in the range of […]. Nonspecific binding was defined by 10^−5 M diazepam and typically represented less than 5% of the total binding. Assays were incubated to equilibrium for 1 hour at 4° C. and harvested onto GF/C uni-filters (Packard) by filtration using a Packard harvester and washing with ice-cold wash buffer (50 mM Tris; pH 7.5). After drying, filter-retained radioactivity was detected by liquid scintillation counting. Ki values were calculated using Excel-Fit (Microsoft) and are the means of two determinations.

| Structure (SMILES) | Ki |
| --- | --- |
| O=C(c1ccc(OCc2c(-c3ccc(F)cc3)noc2CO)cn1)N1CCC(F)(F)CC1 [Example 37, (4,4-Difluoro-piperidin-1-yl)-{5-[3-(4-fluoro-phenyl)-5-hydroxymethyl-isoxazol-4-ylmethoxy]-pyridin-2-yl}-methanone] | 10.2 nM |
| Cn1cc(NC(=O)c2ccc(OCc3c(-c4ccc(F)cc4)noc3CO)cn2)cn1 [Example 35, 5-[3-(4-Fluoro-phenyl)-5-hydroxymethyl-isoxazol-4-ylmethoxy]-pyridine-2-carboxylic acid (1-methyl-1H-pyrazol-4-yl)-amide] | 3.4 nM |
| Cc1onc(-c2ccccn2)c1COc1ccc(C(=O)N2CCS(=O)(=O)CC2)nc1 [Example 10, (1,1-Dioxo-1,6-thiomorpholin-4-yl)-[5-(5-methyl-3-pyridin-2-yl-isoxazol-4-ylmethoxy)-pyridin-2-yl]-methanone] | 34.2 nM |
| Cc1onc(-c2ccccc2)c1COc1ccc(C(=O)NC2CCOC2)nc1 (racemic) [Example 3, Rac-5-(5-Methyl-3-phenyl-isoxazol-4-ylmethoxy)-pyridine-2-carboxylic acid (tetrahydro-furan-3-yl)-amide] | 13.9 nM |
| Cc1onc(-c2ccc(F)cn2)c1COc1ccc(C(=O)NC(C)C)nc1 [Example 23, 5-[3-(5-Fluoro-pyridin-2-yl)-5-methyl-isoxazol-4-ylmethoxy]-pyridine-2-carboxylic acid isopropylamide] | 3.3 nM |
| Cc1onc(-c2ccc(F)cn2)c1COc1ccc(C(=O)NC2CC2)nc1 [Example 27, 5-[3-(5-Fluoro-pyridin-2-yl)-5-methyl-isoxazol-4-ylmethoxy]-pyridine-2-carboxylic acid cyclopropylamide] | 2.6 nM |
| O=C(NC1CC1)c1ccc(OCc2c(-c3ccc(F)cc3)noc2CO)cn1 [Example 31, 5-[3-(4-Fluoro-phenyl)-5-hydroxymethyl-isoxazol-4-ylmethoxy]-pyridine-2-carboxylic acid cyclopropylamide] | 23.3 nM |
